From ChEMBL document CHEMBL1201862, “PubChem BioAssay data set” (2004)
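Exposure lasted 48 hours, with cells grown in 96-well plates and compounds tested at five concentrations. Abbreviation: GI50, concentration required for 50% inhibition of growth.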 Activity calls are given as the source filed them. No stated cut-off is given here; in the data, active = GI50 up to about 1.1 µM and inactive = higher.

Experiments:
Test in all cases: NCI tumour cell line growth inhibition, 48 h
Malme-3M = tested on: Malme-3M
HT-29 = tested on: HT-29
HCT-116 = tested on: HCT-116
RXF 393 = tested on: RXF 393
ACHN = tested on: ACHN
T47D = tested on: T47D
M14 = tested on: M14
EKVX = tested on: EKVX
NCI/ADR-RES = tested on: NCI/ADR-RES
SW-620 = tested on: SW-620
KM12 = tested on: KM12
SF-539 = tested on: SF-539
BT-549 = tested on: BT-549
NCI-H23 = tested on: NCI-H23
CCRF-CEM = tested on: CCRF-CEM
IGROV-1 = tested on: IGROV-1
SK-MEL-28 = tested on: SK-MEL-28
OVCAR-5 = tested on: OVCAR-5
SR = tested on: SR
U-251 = tested on: U-251

Structure (SMILES)	GI50 (Malme-3M)	GI50 (HT-29)	GI50 (HCT-116)	GI50 (RXF 393)	GI50 (ACHN)	GI50 (T47D)	GI50 (M14)	GI50 (EKVX)	GI50 (NCI/ADR-RES)	GI50 (SW-620)	GI50 (KM12)	GI50 (SF-539)	GI50 (BT-549)	GI50 (NCI-H23)	GI50 (CCRF-CEM)	GI50 (IGROV-1)	GI50 (SK-MEL-28)	GI50 (OVCAR-5)	GI50 (SR)	GI50 (U-251)
COC12C=CC(CC1)C(C)(C)C2=O (stereo not given)	> 100 µM (inactive)	> 100 µM (inactive)	> 100 µM (inactive)	> 100 µM (inactive)	> 100 µM (inactive)	> 100 µM (inactive)	> 100 µM (inactive)	> 100 µM (inactive)	> 100 µM (inactive)	> 100 µM (inactive)	> 100 µM (inactive)	> 100 µM (inactive)	> 100 µM (inactive)	> 100 µM (inactive)	> 100 µM (inactive)	> 100 µM (inactive)	> 100 µM (inactive)	> 100 µM (inactive)	> 100 µM (inactive)	> 100 µM (inactive)
O=C1c2cccnc2C(=O)c2c1nc1ccccc1c2-c1ccc2c3c(nc4ccccc42)C(=O)c2cccnc2-c13	1.04 µM (active)	2.38 µM (inactive)	0.459 µM (active)	0.838 µM (active)	0.383 µM (active)	4.58 µM (inactive)	0.405 µM (active)	0.94 µM (active)	1.45 µM (inactive)	0.268 µM (active)	0.971 µM (active)	0.832 µM (active)	2.46 µM (inactive)	1.06 µM (active)	2.07 µM (inactive)	0.0728 µM (active)	2.55 µM (inactive)	6.43 µM (inactive)	< 0.01 µM (active)	1.75 µM (inactive)
O=C(Nc1nncs1)NS(=O)(=O)n1cnc2ccccc21	> 100 µM (inactive)	> 100 µM (inactive)	> 100 µM (inactive)	> 100 µM (inactive)	> 100 µM (inactive)	> 100 µM (inactive)	> 100 µM (inactive)	> 100 µM (inactive)	> 100 µM (inactive)	> 100 µM (inactive)	> 100 µM (inactive)	> 100 µM (inactive)	> 100 µM (inactive)	> 100 µM (inactive)	> 100 µM (inactive)	> 100 µM (inactive)	> 100 µM (inactive)	> 100 µM (inactive)	> 100 µM (inactive)	> 100 µM (inactive)
O=C(O)C(Cc1ccc2c(c1)CCC2)(Cc1ccc2c(c1)CCC2)C(=O)O	> 100 µM (inactive)	> 100 µM (inactive)	> 100 µM (inactive)	> 100 µM (inactive)	> 100 µM (inactive)	> 100 µM (inactive)	> 100 µM (inactive)	> 100 µM (inactive)	> 100 µM (inactive)	> 100 µM (inactive)	> 100 µM (inactive)	> 100 µM (inactive)	> 100 µM (inactive)	> 100 µM (inactive)	> 100 µM (inactive)	> 100 µM (inactive)	> 100 µM (inactive)	> 100 µM (inactive)	> 100 µM (inactive)	> 100 µM (inactive)
C=C(C)C1CC2=C(C(=O)OC)C=C(O2)C(C(=C)C)[C@@H]2OC(=O)/C(=C\C1O)[C@H]2N(C)C (stereo not given in full)	12.9 µM (inactive)	15 µM (inactive)	13.8 µM (inactive)	5.02 µM (inactive)	11.7 µM (inactive)	11.7 µM (inactive)	12.9 µM (inactive)	11.7 µM (inactive)	8.07 µM (inactive)	7.33 µM (inactive)	13.7 µM (inactive)	7.4 µM (inactive)	9.75 µM (inactive)	13.1 µM (inactive)	1.6 µM (inactive)	6.04 µM (inactive)	13.1 µM (inactive)	16.5 µM (inactive)	6.92 µM (inactive)	15.7 µM (inactive)
N#Cc1c(-c2ccccc2)[nH]c2ccc(Cl)cc2c1=O	> 100 µM (inactive)	> 100 µM (inactive)	81.8 µM (inactive)	20.7 µM (inactive)	> 100 µM (inactive)	> 100 µM (inactive)	> 100 µM (inactive)	> 100 µM (inactive)	92.9 µM (inactive)	> 100 µM (inactive)	> 100 µM (inactive)	> 100 µM (inactive)	22.5 µM (inactive)	92.5 µM (inactive)	> 100 µM (inactive)	63.1 µM (inactive)	> 100 µM (inactive)	> 100 µM (inactive)	> 100 µM (inactive)	28.2 µM (inactive)
CC(C)C(=O)CP(=O)(O)O	> 100 µM (inactive)	> 100 µM (inactive)	> 100 µM (inactive)	> 100 µM (inactive)	> 100 µM (inactive)	> 100 µM (inactive)	> 100 µM (inactive)	23.4 µM (inactive)	> 100 µM (inactive)	> 100 µM (inactive)	> 100 µM (inactive)	> 100 µM (inactive)	> 100 µM (inactive)	> 100 µM (inactive)	> 100 µM (inactive)	> 100 µM (inactive)	> 100 µM (inactive)	> 100 µM (inactive)	> 100 µM (inactive)	> 100 µM (inactive)
CC(C)c1ccc(C(c2c(O)oc3ccccc3c2=O)c2c(O)oc3ccccc3c2=O)cc1	20.6 µM (inactive)	20.8 µM (inactive)	17 µM (inactive)	21.8 µM (inactive)	26.2 µM (inactive)	31.2 µM (inactive)	19.6 µM (inactive)	22.9 µM (inactive)	22.3 µM (inactive)	17.1 µM (inactive)	19.5 µM (inactive)	21.8 µM (inactive)	18.1 µM (inactive)	23.9 µM (inactive)	11.6 µM (inactive)	24.8 µM (inactive)	18.9 µM (inactive)	17.6 µM (inactive)	9.64 µM (inactive)	15.1 µM (inactive)
